{"source": "patent US5582837A", "about": "“Alkyl-substituted cellulose-based sustained-release oral drug dosage forms” (priority 1995, dated 1996)", "test_system": "isolated colon section", "conditions": "rabbit, in vivo", "procedure": "Each rabbit was anesthetized using an intramuscular injection of xylazine and ketamine, given at 5-8 mg/kg and 35-40 mg/kg, respectively. The abdomen and the cervical area was then shaved. A surgical cutdown was performed to place a catheter into the jugular vein for maintaining anesthesia throughout the entire exposure period. The maintenance anesthesia was sodium pentobarbitol given at 13 mg/kg as needed. An endotracheal tube was then inserted to facilitate normal respiration.\nIn the anesthetized animal model a section of the colon, immediately proximal to the cecum, was isolated with the mesenteric vascular system intact. Two ligatures were placed approximately 15-20 cm apart around the colon section. The isolated section was then freed from the remaining intestine by cutting between the ligatures, taking care to leave the vascular and nervous systems intact. A longitudinal incision was made along the entire length of the isolated colon section and the fecal material removed. The isolated colon section is then placed onto a three-cell test chamber which forms the floor of the test cell. The test cell is continuously perfused with Lactated Ringer's solution at a rate of 2.2 ml per minute using a Model 975 Harvard pump. The test chamber is allowed to equilibrate for one hour to maintain a constant temperature of 37° C. (±2° C.). […]\nA quantity of the test material was chosen such that the total milligram amount of aspirin delivered over the 6-hour exposure period was equal to the total dose of aspirin provided by the positive control.\nAfter 6 hours of continuous exposure, each rabbit was euthanized using an intravenous injection of sodium pentobarbitol given at approximately 100 mg/kg. The isolated section of exposed colon was removed from the intestine and evaluated for macroscopic evidence of irritation for both degree (0-4) and area (0-6.40 cm^2). […]", "data": [{"compound": "CC(=O)Oc1ccccc1C(=O)O", "note": "[Aspirin, aspirin]", "values": [{"measurement": "Mean Irritation Area", "result": 4.48, "unit": "cm^2"}, {"measurement": "Mean Irritation Index", "result": 17.93}, {"measurement": "Mean Irritation Source", "result": 4.00}]}]}
